{
  "source": "patent US20070265210A1",
  "about": "“Administration of C-glycoside compounds for protecting and/or activating gammadeltaT lymphocytes” (L'OREAL, priority 2006, published 2007)",
  "test_system": "human peripheral blood cells (lymphocytes)",
  "experiment": "γδT lymphocyte proliferation induction, BrdU labeling after 3 days of culture",
  "assay_type": "cell-based",
  "set-up": "key to cytotoxicity: *: cytotoxicity",
  "details": "3 days culture; for % stimulation relative to the control: BrdU",
  "experimental": "The γδT lymphocyte proliferation-inducing activity is tested in the following way: human peripheral blood cells are cultured in the presence of an RPMI-type culture medium supplemented with L-glutamine (2 mM), penicillin/streptomycin (50 μg/50 IU/ml) and foetal calf serum (10%). The C-glycoside derivatives 1 and 2 are added at various concentrations (10 to 0.05 mM), along with phytohemagglutin (PHA at […]), a positive control for total lymphocyte proliferation.",
  "data": [
    {"smiles": "CC(=O)C[C@@H]1OC[C@@H](O)[C@H](O)[C@H]1O", "note": "[Compound 1, 1-(C-β-D-xylopyranosyl)propan-2-one]", "values": [
      {"measurement": "% stimulation relative to the control", "setting": "0.05 mM", "value": 108, "unit": "%"},
      {"measurement": "% stimulation relative to the control", "setting": "0.1 mM", "value": 115, "unit": "%"},
      {"measurement": "% stimulation relative to the control", "setting": "0.5 mM", "value": 84, "unit": "%"},
      {"measurement": "% stimulation relative to the control", "setting": "1 mM", "value": 131, "unit": "%"},
      {"measurement": "cytotoxicity", "setting": "5 mM", "value": "*"},
      {"measurement": "% stimulation relative to the control", "setting": "5 mM", "value": 106, "unit": "%"},
      {"measurement": "cytotoxicity", "setting": "10 mM", "value": "*"},
      {"measurement": "% stimulation relative to the control", "setting": "10 mM", "value": 74, "unit": "%"}
    ]},
    {"smiles": "CC(=O)C[C@@H]1O[C@H](CO)[C@@H](O)[C@H](O)[C@H]1O", "note": "[Compound 2, 1-(C-β-D-glucopyranosyl)propan-2-one]", "values": [
      {"measurement": "% stimulation relative to the control", "setting": "0.05 mM", "value": 64, "unit": "%"},
      {"measurement": "% stimulation relative to the control", "setting": "0.1 mM", "value": 76, "unit": "%"},
      {"measurement": "% stimulation relative to the control", "setting": "0.5 mM", "value": 90, "unit": "%"},
      {"measurement": "% stimulation relative to the control", "setting": "1 mM", "value": 123, "unit": "%"},
      {"measurement": "% stimulation relative to the control", "setting": "5 mM", "value": 227, "unit": "%"},
      {"measurement": "% stimulation relative to the control", "setting": "10 mM", "value": 224, "unit": "%"}
    ]}
  ]
}
